Columns and labels:
E. coli = assay type: cell-based, Escherichia coli; details: for IC50: Mueller-Hinton Broth, 37° C., 18 hours, up to 20 μM, read-out: IC50 against E. coli; for Inhibition of growth of E. coli: at the concentrations tested (0.3125-20 μM)
Method: (§1) A single E. coli or B. subtilis colony was used to inoculate 5 ml of Luria-Bertani media and grown overnight at 37° C. The following day, the optical density of the culture was measured and the bacteria diluted to an optical density at 600 nm (OD600) of 0.01 in Mueller-Hinton Broth. Diluted E. coli or B. subtilis were added to 96-well plates with defensins at concentrations of 20 μM, 10 μM, 5 μM, 2.5 μM, 1.25 μM, 0.625 μM or 0.3125 μM. Plates were read at OD595 to obtain time zero data points. Plates were incubated at 37° C. for 18 hours before reading again at OD595 to assess the amount of bacterial growth.

A. flavus = assay: Inhibition of growth of A. flavus, Example 2 antifungal assay; assay type: cell-based; details: ½ strength PDB, 30° C., A595
Method: (§2) The inhibitory effects of the plant defensins on the growth of Candida albicans, Aspergillus fumigatus (obtained from the National Mycology Reference Centre, South Australia Pathology at the Women's and Children's Hospital, Adelaide, Australia), C. glabrata, C. tropicalis, A. flavus, A. niger, A. fumigants, Cryptococcus neoformans and C. gattii (obtained from Dee Carter, University of Sydney, New South Wales, Australia) are measured essentially as described by Broekaert et al. (1990) FEMS Microbiol Lett 69:55-59.
(§3) Spores of A. flavus. A. niger and A. fumigatus are isolated from sporulating fungus growing on ½ strength Sabouraud dextrose agar. Spores were removed from the plates by the addition of ½ strength potato dextrose broth (PDB). C. albicans, C. glabrata, C. tropicalis, C. neoformans and C. gattii cells are grown in Yeast Peptone Broth (YPD) for 16 h. Spore and cell concentrations are measured using a hemocytometer.
(§4) Antifungal assays are conducted in 96 well microtitre plates essentially as herein described. Wells are loaded with 20 μL of filter sterilized (0.22 μm syringe filter, Millipore) defensin (10× stock for each final concentration) or water and 80 μL of 5×10^4 spores/mL (A. flavus, A. niger, A. fumigatus), 5,000 cells/mL (C. albicans, C. glabrata, C. tropicalis) or 1×10^6 cells/mL (C. neoformans, C. gattii) in ½ strength PDB. The plates are incubated at 30° C. Fungal growth is assayed by measuring optical density at 595 nm (A595) using a microtitre plate reader (SpectraMax Pro M2; Molecular Devices. Growth is allowed to proceed until the optical density (OD) of the fungus in the absence of any test defensin reached an OD of 0.2. Each test is performed in duplicate.

C. neoformans = assay: Inhibition of growth of Cryptococcus neoformans, Example 2 antifungal assay; assay type: cell-based; details: ½ strength PDB, 30° C., A595
Method: as §2, §3, §4

C. gattii = assay: Inhibition of growth of C. gattii, Example 2 antifungal assay; assay type: cell-based; details: ½ strength PDB, 30° C., A595
Method: as §2, §3, §4

C. glabrata = assay: Inhibition of growth of C. glabrata, Example 2 antifungal assay; assay type: cell-based; details: ½ strength PDB, 30° C., A595
Method: as §2, §3, §4

A. niger = assay: Inhibition of growth of A. niger, Example 2 antifungal assay; assay type: cell-based; details: ½ strength PDB, 30° C., A595
Method: as §2, §3, §4

A. fumigatus = assay: Inhibition of growth of Aspergillus fumigatus, Example 2 antifungal assay; assay type: cell-based; details: ½ strength PDB, 30° C., A595
Method: as §2, §3, §4

B. subtilis = assay: Inhibition of the growth of Bacillus subtilis (OD595, 18 hours); assay type: cell-based; details: for IC50: Mueller-Hinton Broth, 37° C., 18 hours, up to 20 μM, read-out: IC50 against B. subtilis; for Inhibition of growth of B. subtilis: at the concentrations tested (0.3125-20 μM)
Method: as §1

T. rubrum = assay: Inhibition of growth of Trichophyton rubrum by plant defensins (microtitre A595 antifungal assay); assay type: cell-based; details: ½ strength PDB, 30° C.
Method: (§5) The inhibitory effects of the plant defensins on the growth of Trichophyton rubrum, T. interdigitale, Microsporum fulvum and C. albicans (all obtained from the National Mycology Reference Centre, South Australia Pathology at the Women's and Children's Hospital, Adelaide, Australia) are measured essentially as described by Broekaert et al. (1990) FEMS Microbiol Lett 69:55-59.
as §3, with “T. rubrum, T. interdigitale” for “A. flavus. A. niger”, “M. fulvum” for “A. fumigatus”, “albicans” for “albicans, C. glabrata, C. tropicalis, C. neoformans and C. gattii”
as §4, with “Ξ m” for “μm”, “(T. rubrum, T. interdigitale, M. fulvum) or” for “(A. flavus, A. niger, A. fumigatus),”, “albicans)” for “albicans, C. glabrata, C. tropicalis) or 1×10^6 cells/mL (C. neoformans, C. gattii)”

T. albicans = assay: Inhibition of growth of C. albicans by plant defensins, Example 1 (microtitre A595 antifungal assay); assay type: cell-based; details: for IC50 against T. albicans: Table 3, ½ strength PDB, 30° C., A595
Method: as §5
as §3, with “T. rubrum, T. interdigitale” for “A. flavus. A. niger”, “M. fulvum” for “A. fumigatus”, “albicans” for “albicans, C. glabrata, C. tropicalis, C. neoformans and C. gattii”
as §4, with “Ξ m” for “μm”, “(T. rubrum, T. interdigitale, M. fulvum) or” for “(A. flavus, A. niger, A. fumigatus),”, “albicans)” for “albicans, C. glabrata, C. tropicalis) or 1×10^6 cells/mL (C. neoformans, C. gattii)”

C. tropicalis = assay: Inhibition of growth of C. tropicalis, Example 2 antifungal assay; assay type: cell-based; details: ½ strength PDB, 30° C., A595
Method: as §2, §3, §4

M. fulvum = assay: Inhibition of growth of Microsporum fulvum by plant defensins (microtitre A595 antifungal assay); assay type: cell-based; details: for IC50 against M. fulvum: ½ strength PDB, 30° C., A595
Method: as §5
as §3, with “T. rubrum, T. interdigitale” for “A. flavus. A. niger”, “M. fulvum” for “A. fumigatus”, “albicans” for “albicans, C. glabrata, C. tropicalis, C. neoformans and C. gattii”
as §4, with “Ξ m” for “μm”, “(T. rubrum, T. interdigitale, M. fulvum) or” for “(A. flavus, A. niger, A. fumigatus),”, “albicans)” for “albicans, C. glabrata, C. tropicalis) or 1×10^6 cells/mL (C. neoformans, C. gattii)”

C. albicans = assay: Inhibition of growth of Candida albicans, Example 2 antifungal assay; assay type: cell-based; details: Table 4; ½ strength PDB, 30° C., A595
Method: as §2, §3, §4

[1] = tested on: Trichophyton rubrum, T. interdigitale, Microsporum fulvum and C. albicans; assay: Inhibition assays of Example 1, summary across the range of fungal pathogens; assay type: cell-based; details: summary of Table 3, at the concentrations tested
Method: as §5
as §3, with “T. rubrum, T. interdigitale” for “A. flavus. A. niger”, “M. fulvum” for “A. fumigatus”, “albicans” for “albicans, C. glabrata, C. tropicalis, C. neoformans and C. gattii”
as §4, with “Ξ m” for “μm”, “(T. rubrum, T. interdigitale, M. fulvum) or” for “(A. flavus, A. niger, A. fumigatus),”, “albicans)” for “albicans, C. glabrata, C. tropicalis) or 1×10^6 cells/mL (C. neoformans, C. gattii)”

T. interdigitale = assay: Inhibition of growth of T. interdigitale by plant defensins (microtitre A595 antifungal assay); assay type: cell-based, Trichophyton interdigitale; details: ½ strength PDB, 30° C.
Method: as §5
as §3, with “T. rubrum, T. interdigitale” for “A. flavus. A. niger”, “M. fulvum” for “A. fumigatus”, “albicans” for “albicans, C. glabrata, C. tropicalis, C. neoformans and C. gattii”
as §4, with “Ξ m” for “μm”, “(T. rubrum, T. interdigitale, M. fulvum) or” for “(A. flavus, A. niger, A. fumigatus),”, “albicans)” for “albicans, C. glabrata, C. tropicalis) or 1×10^6 cells/mL (C. neoformans, C. gattii)”

| Compound | IC50 (E. coli) | IC50 against A. flavus (A. flavus) | IC50 against C. neoformans (C. neoformans) | IC50 against C. gattii (C. gattii) | IC50 against C. glabrata (C. glabrata) | IC50 against A. niger (A. niger) | IC50 against A. fumigatus (A. fumigatus) | IC50 (B. subtilis) | Inhibition of growth of B. subtilis (B. subtilis) | IC50 against T. rubrum (T. rubrum) | Inhibition of growth of E. coli (E. coli) | IC50 against T. albicans (T. albicans) | IC50 against C. tropicalis (C. tropicalis) | IC50 against M. fulvum (M. fulvum) | IC50 against C. albicans (C. albicans) | Activity across the range of fungal pathogens [1] | Inhibition of C. albicans (T. albicans; summary of Table 3) | Inhibition of M. fulvum (M. fulvum; summary of Table 3) | IC50 against T. interdigitale (T. interdigitale) |
| --- | --- | --- | --- | --- | --- | --- | --- | --- | --- | --- | --- | --- | --- | --- | --- | --- | --- | --- | --- |
| CC[C@H](C)[C@H](NC(=O)[C@H](CCCCN)NC(=O)[C@H](CCC(=O)O)NC(=O)[C@H](CCCCN)NC(=O)[C@H](CO)NC(=O)[C@H](CCCCN)NC(=O)[C@H](CCCNC(=N)N)NC(=O)[C@H](Cc1ccccc1)NC(=O)[C@H](Cc1ccccc1)NC(=O)[C@H](CC(=O)O)NC(=O)CNC(=O)[C@H](CC(C)C)NC(=O)[C@@H](N)CC(C)C)C(=O)NCC(=O)N[C@@H](CCCCN)C(=O)N[C@@H](CCC(=O)O)C(=O)N[C@@H](Cc1ccccc1)C(=O)N[C@@H](CCCCN)C(=O)N[C@@H](CCCNC(=N)N)C(=O)N[C@H](C(=O)N[C@H](C(=O)N[C@@H](CCC(N)=O)C(=O)N[C@@H](CCCNC(=N)N)C(=O)N[C@H](C(=O)N[C@@H](CCCCN)C(=O)N[C@@H](CC(=O)O)C(=O)N[C@@H](Cc1ccccc1)C(=O)N[C@@H](CC(C)C)C(=O)N[C@@H](CCCNC(=N)N)C(=O)N[C@@H](CC(N)=O)C(=O)N[C@@H](CC(C)C)C(=O)N[C@H](C(=O)N1CCC[C@H]1C(=O)N[C@@H](CCCNC(=N)N)C(=O)N[C@H](C(=O)N[C@@H](CCC(=O)O)C(=O)N[C@@H](CO)C(=O)O)[C@@H](C)O)C(C)C)[C@@H](C)CC)C(C)C)[C@@H](C)CC [LL37, reference compound] | 2.5 µM |  |  |  |  |  |  |  |  |  |  |  |  |  |  |  |  |  |  |
| HXL001: Class I plant defensin from Zea mays (RHCLSQSHRFKGLCMSSNNCANVCQTENFPGGECKAEGATRKCFCKKIC; HXL001 Zea mays) | > 20 µM | >100 µg/mL | 10 µg/mL | 40 µg/mL | 32 µg/mL | >100 µg/mL | >100 µg/mL | > 20 µM | did not inhibit the growth | >100 µg/mL | did not inhibit the growth | 35 µg/mL | 6 µg/mL | >100 µg/mL | 35 µg/mL | did not display any activity |  |  |  |
| HXL002: Class I plant defensin from Triticum aestivum (RDCLSQSHKFKGACLSSSNCAAVCRTENFPDGECHTHNFARKCFCKRAC; HXL002 Triticum aestivum) | > 20 µM |  | 2.5 µg/mL | 18 µg/mL | 15 µg/mL | 20 µg/mL | 25 µg/mL | > 20 µM | did not inhibit the growth |  | did not inhibit the growth | 35 µg/mL | 2 µg/mL | 50 µg/mL | 35 µg/mL |  | very poor inhibitors | very poor inhibitors |  |
| HXL003: Class I plant defensin from Triticum aestivum (ARDCTSQSHKFVGLCLSDRNCASVCLTEYFTGGKCDHRRCVCTKGC; HXL003 Triticum aestivum) | > 20 µM | >100 µg/mL | 3 µg/mL | 20 µg/mL | >100 µg/mL | >100 µg/mL | >100 µg/mL | > 20 µM | did not inhibit the growth |  | did not inhibit the growth | >100 µg/mL | 8 µg/mL | >100 µg/mL | >100 µg/mL |  |  |  |  |
| HXL009: Class I plant defensin from Zea mays (TVCMRHNNFYHGPCMSNKDCANSCVQHNLGVGGYCRGKIPFNKECMCTFEC; HXL009 Zea mays) | > 20 µM | >100 µg/mL | 8 µg/mL | 38 µg/mL | >100 µg/mL | >100 µg/mL | >100 µg/mL | > 20 µM |  |  |  | >100 µg/mL | 12 µg/mL | >100 µg/mL | >100 µg/mL | did not display any activity |  |  |  |
| HXL013: Class I plant defensin from Glycine max (KDCLTRRHGFQGRCLFDRQCAHVCRSDGFIGGQCRGPLRKCFCSRPC; HXL013 Glycine max) | > 20 µM | >100 µg/mL | 9 µg/mL | 22 µg/mL | 25 µg/mL | >100 µg/mL | >100 µg/mL | 10 µM |  | 22 µg/mL |  | 20 µg/mL | 12 µg/mL | 5.5 µg/mL | 20 µg/mL | intermediate activity |  |  |  |
| HXL015: Class I plant defensin from Oryza sativa (RHCLSQSHRFKGMCVSSNNCANVCRTESFPDGECKSHGLERKCFCKKVC; HXL015 Oryza sativa) |  |  |  |  |  |  |  |  |  | 10 µg/mL |  |  |  | 12.5 µg/mL | 5 µg/mL | intermediate activity |  |  | 3.5 µg/mL |
| NaD1: Solanaceous Class II plant defensin from Nicotiana alata (RECKTESNTFPGICITKPPCRKACISEKFTDGHCSKILRRCLCTKPC; NaD1 Nicotiana alata) | > 20 µM | 20 µg/mL | 3 µg/mL | 5 µg/mL | 14 µg/mL | 16 µg/mL | 8 µg/mL |  | did not inhibit the growth | 8 µg/mL | did not inhibit the growth | 20 µg/mL | 2.5 µg/mL | 5.3 µg/mL | 20 µg/mL |  |  |  | 10 µg/mL |

Reference: US20180193412A1, “Method of In Vivo Treatment” (Hexima Limited, priority 2015, published 2018)
